According to patent US9382197B2, “Substituted hydroxamic acids and uses thereof” (Millennium Pharmaceuticals, Inc., priority 2010, dated 2016):

Biological target: T1, purified human HDAC6 (Homo sapiens, UniProt Q9UBN7)
T1 construct: purchased BPS Bioscience 5006
T1 sequence (Q9UBN7 1-1215): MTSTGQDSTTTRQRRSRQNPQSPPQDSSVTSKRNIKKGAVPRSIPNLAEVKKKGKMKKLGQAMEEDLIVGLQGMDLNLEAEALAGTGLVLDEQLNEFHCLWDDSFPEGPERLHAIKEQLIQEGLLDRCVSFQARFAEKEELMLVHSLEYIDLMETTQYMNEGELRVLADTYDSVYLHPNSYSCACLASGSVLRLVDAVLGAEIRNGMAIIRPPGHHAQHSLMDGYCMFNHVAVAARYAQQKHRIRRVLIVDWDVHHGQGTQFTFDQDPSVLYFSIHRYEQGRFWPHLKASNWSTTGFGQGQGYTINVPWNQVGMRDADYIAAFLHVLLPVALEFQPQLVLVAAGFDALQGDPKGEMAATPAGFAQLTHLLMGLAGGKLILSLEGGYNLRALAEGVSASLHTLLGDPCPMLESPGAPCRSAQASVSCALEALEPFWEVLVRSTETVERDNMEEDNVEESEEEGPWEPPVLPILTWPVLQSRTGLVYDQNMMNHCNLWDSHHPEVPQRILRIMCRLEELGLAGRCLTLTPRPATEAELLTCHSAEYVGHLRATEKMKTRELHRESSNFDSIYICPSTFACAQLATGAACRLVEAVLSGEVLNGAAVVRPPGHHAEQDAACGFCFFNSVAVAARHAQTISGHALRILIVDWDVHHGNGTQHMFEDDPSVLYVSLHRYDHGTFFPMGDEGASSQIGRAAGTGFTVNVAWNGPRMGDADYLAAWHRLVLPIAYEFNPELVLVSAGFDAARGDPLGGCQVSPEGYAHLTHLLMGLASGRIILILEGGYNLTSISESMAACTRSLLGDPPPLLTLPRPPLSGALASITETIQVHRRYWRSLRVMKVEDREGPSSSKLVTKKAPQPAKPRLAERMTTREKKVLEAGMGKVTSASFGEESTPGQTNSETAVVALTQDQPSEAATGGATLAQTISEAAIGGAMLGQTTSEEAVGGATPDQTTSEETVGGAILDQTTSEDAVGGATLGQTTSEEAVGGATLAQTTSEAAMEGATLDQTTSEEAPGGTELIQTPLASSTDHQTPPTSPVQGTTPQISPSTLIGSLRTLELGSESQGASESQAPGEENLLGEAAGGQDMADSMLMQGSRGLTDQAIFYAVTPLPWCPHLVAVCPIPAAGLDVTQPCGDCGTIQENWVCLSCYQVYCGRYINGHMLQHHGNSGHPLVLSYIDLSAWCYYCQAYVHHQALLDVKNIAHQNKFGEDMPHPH
Assay: HDAC6 Enzyme Assay
Type: biochemical
Conditions: bin: greater than 500 nM and less than 1 μM (lower bound in nM, upper bound in μM)
How it was run: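 Deacetylated product quantified after trypsin digestion as released AMC (340/460 nm), following a 1 h, 30 °C reaction of human HDAC6 with Ac-RGK(Ac)-AMC peptide, quenched by trichostatin A. IC50 derived from DMSO-normalized curves.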

IC50 | Structure (SMILES)
500 to 1000 nM | CC(NC(=O)c1cc(F)cc(F)c1)c1cccc(C(=O)NO)c1 (stereo not drawn) [Compound I-137, 3,5-difluoro-N-(1-{3-[(hydroxyamino)carbonyl]phenyl}ethyl)benzamide]
500 to 1000 nM | Cc1nc(C(F)(F)F)c(C(=O)NC(c2ccc(C(=O)NO)cc2)C(C)C)s1 (stereo not drawn) [Compound I-139, N-(1-{4-[(hydroxyamino)carbonyl]phenyl}-2-methylpropyl)-2-methyl-4-(trifluoromethyl)-1,3-thiazole-5-carboxamide]

Same assay, conditions: bin: greater than 1 μM

IC50 | Structure (SMILES)
> 1000 nM | CC(C)CC(=O)NC(C)c1ccc(C(=O)NO)cc1 (stereo not drawn) [Compound I-111, N-hydroxy-4-{1-[(3-methylbutanoyl)amino]ethyl}benzamide]

Same assay, conditions: purified human HDAC6, substrate Ac-Arg-Gly-Lys(Ac)-AMC, 1 hour at 30° C.; reported as bins

IC50 | Structure (SMILES)
< 100 nM | CC(NC(=O)c1cc(-c2ccccc2)n[nH]1)c1ccc(C(=O)NO)cc1 (stereo not drawn) [Compound I-109, N-(1-{4-[(hydroxyamino)carbonyl]phenyl}ethyl)-3-phenyl-1H-pyrazole-5-carboxamide]
< 100 nM | CC(NC(=O)C1(c2ccc(Cl)cc2)CCC1)c1ccc(C(=O)NO)cc1 (stereo not drawn) [Compound I-110, 4-[1-({[1-(4-chlorophenyl)cyclobutyl]carbonyl}amino)ethyl]-N-hydroxybenzamide]
< 100 nM | CC(C)C(NC(=O)c1cccs1)c1ccc(C(=O)NO)cc1 (stereo not drawn) [Compound I-112, N-(1-{4-[(hydroxyamino)carbonyl]phenyl}-2-methylpropyl)thiophene-2-carboxamide]
100 to 500 nM | Cc1c(C(=O)N[C@H](C)c2cccc(C(=O)NO)c2)sc2ccccc12 [Compound I-113, N-((1R)-1-{3-[(hydroxyamino)carbonyl]phenyl}ethyl)-3-methyl-1-benzothiophene-2-carboxamide]
100 to 500 nM | CC(NC(=O)c1c2c(nn1C)CCCC2)c1ccc(C(=O)NO)cc1 (stereo not drawn) [Compound I-114, N-(1-{4-[(hydroxyamino)carbonyl]phenyl}ethyl)-2-methyl-4,5,6,7-tetrahydro-2H-indazole-3-carboxamide]
< 100 nM | C[C@@H](NC(=O)c1cc2ccccc2n1C)c1ccc(C(=O)NO)cc1 [Compound I-115, N-((1R)-1-{4-[(hydroxyamino)carbonyl]phenyl}ethyl)-1-methyl-1H-indole-2-carboxamide]
< 100 nM | CC(C)C(NC(=O)c1cc(F)c(F)cc1F)c1ccc(C(=O)NO)cc1 (stereo not drawn) [Compound I-116, 2,4,5-trifluoro-N-(1-{4-[(hydroxyamino)carbonyl]phenyl}-2-methylpropyl)benzamide]
100 to 500 nM | CC(NC(=O)c1csc2ccccc12)c1cccc(C(=O)NO)c1 (stereo not drawn) [Compound I-117, N-(1-{3-[(hydroxyamino)carbonyl]phenyl}ethyl)-1-benzothiophene-3-carboxamide]
< 100 nM | Cc1ccc(NC(=O)NC(C)c2ccc(C(=O)NO)cc2)cc1F (stereo not drawn) [Compound I-120, 4-[1-({[(3-fluoro-4-methylphenyl)amino]carbonyl}amino)ethyl]-N-hydroxybenzamide]
100 to 500 nM | C[C@@H](NC(=O)c1ccc(-c2ccccc2)cc1)c1cccc(C(=O)NO)c1 [Compound I-121, N-((1R)-1-{3-[(hydroxyamino)carbonyl]phenyl}ethyl)biphenyl-4-carboxamide]
< 100 nM | COc1ccc(C(=O)N[C@@H](c2ccc(C(=O)NO)cc2)C(F)(F)F)cc1 [Compound I-122, 4-methoxy-N-((1S)-2,2,2-trifluoro-1-{4-[(hydroxyamino)carbonyl]phenyl}ethyl)benzamide]
100 to 500 nM | CC(C)(C)C(NC(=O)c1cscn1)c1ccc(C(=O)NO)cc1 (stereo not drawn) [Compound I-123, N-(1-{4-[(hydroxyamino)carbonyl]phenyl}-2,2-dimethylpropyl)-1,3-thiazole-4-carboxamide]
< 100 nM | O=C(NO)c1ccc([C@@H](NC(=O)c2cc3ccccc3s2)c2ccccc2)cc1 [Compound I-124, N-[(S)-{4-[(hydroxyamino)carbonyl]phenyl}(phenyl)methyl]-1-benzothiophene-2-carboxamide]
< 100 nM | CC(NC(=O)c1cn2ccccc2n1)c1ccc(C(=O)NO)cc1 (stereo not drawn) [Compound I-125, N-(1-{4-[(hydroxyamino)carbonyl]phenyl}ethyl)imidazo[1,2-a]pyridine-2-carboxamide]
100 to 500 nM | CC(C)[C@@H](NC(=O)C1(C)CCCCC1)c1ccc(C(=O)NO)cc1 [Compound I-126, N-hydroxy-4-((1R)-2-methyl-1-{[(1-methylcyclohexyl)carbonyl]amino}propyl)benzamide]
< 100 nM | CC(C)(C)C(NC(=O)c1cc2ccccc2[nH]1)c1ccc(C(=O)NO)cc1 (stereo not drawn) [Compound I-127, N-(1-{4-[(hydroxyamino)carbonyl]phenyl}-2,2-dimethylpropyl)-1H-indole-2-carboxamide]
< 100 nM | CC(NC(=O)c1ccc2ccccc2n1)c1ccc(C(=O)NO)cc1 (stereo not drawn) [Compound I-128, N-(1-{4-[(hydroxyamino)carbonyl]phenyl}ethyl)quinoline-2-carboxamide]
< 100 nM | Cc1ccc2[nH]c(C(=O)NC(c3ccc(C(=O)NO)cc3)C(C)(C)C)cc2c1 (stereo not drawn) [Compound I-129, N-(1-{4-[(hydroxyamino)carbonyl]phenyl}-2,2-dimethylpropyl)-5-methyl-1H-indole-2-carboxamide]
< 100 nM | CC(C)C(NC(=O)c1cc2cc(Cl)ccc2o1)c1ccc(C(=O)NO)cc1 (stereo not drawn) [Compound I-130, 5-chloro-N-(1-{4-[(hydroxyamino)carbonyl]phenyl}-2-methylpropyl)-1-benzofuran-2-carboxamide]
< 100 nM | CC(NC(=O)C1(C)CCCCC1)c1ccc(C(=O)NO)cc1 (stereo not drawn) [Compound I-132, N-hydroxy-4-(1-{[(1-methylcyclohexyl)carbonyl]amino}ethyl)benzamide]
100 to 500 nM | Cn1cccc1C(=O)NC(c1ccc(C(=O)NO)cc1)C(C)(C)C (stereo not drawn) [Compound I-133, N-(1-{4-[(hydroxyamino)carbonyl]phenyl}-2,2-dimethylpropyl)-1-methyl-1H-pyrrole-2-carboxamide]
< 100 nM | CC(NC(=O)c1cccc2c1OCC2)c1ccc(C(=O)NO)cc1 (stereo not drawn) [Compound I-134, N-(1-{4-[(hydroxyamino)carbonyl]phenyl}ethyl)-2,3-dihydro-1-benzofuran-7-carboxamide]
< 100 nM | CC(C)C(NC(=O)c1ccc2nsnc2c1)c1ccc(C(=O)NO)cc1 (stereo not drawn) [Compound I-135, N-(1-{4-[(hydroxyamino)carbonyl]phenyl}-2-methylpropyl)-2,1,3-benzothiadiazole-5-carboxamide]
< 100 nM | CC(NC(=O)c1ccc(Cl)cc1)c1ccc(C(=O)NO)cc1 (stereo not drawn) [Compound I-136, 4-chloro-N-(1-{4-[(hydroxyamino)carbonyl]phenyl}ethyl)benzamide]
< 100 nM | CC(NC(=O)c1ccc(-c2cnco2)cc1)c1ccc(C(=O)NO)cc1 (stereo not drawn) [Compound I-138, N-(1-{4-[(hydroxyamino)carbonyl]phenyl}ethyl)-4-(1,3-oxazol-5-yl)benzamide]
< 100 nM | CC(NC(=O)Nc1ccc(C(C)(C)C)cc1)c1ccc(C(=O)NO)cc1 (stereo not drawn) [Compound I-140, 4-[1-({[(4-tert-butylphenyl)amino]carbonyl}amino)ethyl]-N-hydroxybenzamide]
< 100 nM | CC(NC(=O)Nc1ccc(OC(F)(F)F)cc1)c1ccc(C(=O)NO)cc1 (stereo not drawn) [Compound I-141, N-hydroxy-4-{1-[({[4-(trifluoromethoxy)phenyl]amino}carbonyl)amino]ethyl}benzamide]
